Laboratory results from patent US12528837B2, “Aryl substituted polymyxin derivatives” (priority 2018, dated 2026).
Values after ≈ are worked out from the molar mass of the structure shown. Like-named read-outs stand apart in the source and are kept apart here. Where a SMILES comes first, the peptide text is derived from it. Bridges are numbered along the chain shown (N, C = ends). [ ]: non-standard residue; d: D form. The star is where a group is joined. X6 = CC(C)Cc1cccc([C@@H](CN)CC(=O)*)c1; X3 = CC(C)c1cccc([C@@H](CN)CC(=O)*)c1; X16 = NC[C@H](CC(=O)*)Cc1cccc(Cl)c1; X8 = NC[C@@H](CC(=O)*)Cc1cccc(Cl)c1; X15 = NC[C@@H](CC(=O)*)c1ccccc1Cl; X5 = NC[C@H](CC(=O)*)c1ccc(Cl)cc1; X11 = NC[C@H](CC(=O)*)c1ccccc1Cl; Dab = NCC[C@H](N)C(=O)O; Abu = CC[C@H](N)C(=O)O; Dap = NC[C@H](N)C(=O)O

What was measured:
HK-2 cells = assay: In vitro renal cell toxicity assay (HK-2); assay type: cell-based
Procedure, shortened: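 HK-2 cells seeded 7,500/well, adhered overnight, then exposed to compound for 24 h at 37° C, 5% CO2, with 5% water and 0.5% DMSO. Background-subtracted, vehicle-normalised dose-response fitted with bottom fixed at zero; IC50 reported relative to PMB in the same run, median where repeated.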

[1] = Kidney drug level after subcutaneous dose in mouse; assay type: in vivo; details: mouse, in vivo; for tissue level at time at 4 h: sc, 17.2 mg/kg
Procedure, shortened: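 Mice were euthanised four hours after subcutaneous dosing. Both kidneys were trimmed, weighed, snap-frozen, then homogenised with zirconium oxide beads. After centrifugation (13,000 rpm, 6 °C, 10 min), supernatants were analysed by LC-MS-MS.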

E. coli CA58 = assay type: cell-based
Procedure, shortened: (§1)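 Inoculum was a direct suspension of isolated colonies from an 18-24 hour Mueller-Hinton agar plate, adjusted to the 0.5 McFarland standard. Assays ran in duplicate. MICs are in μg/mL; compounds tested more than once are reported as the median.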

K. pneumoniae CA64 = assay type: cell-based
Procedure, shortened: as §1

P. aeruginosa CCUG 59347 = assay type: cell-based
Procedure, shortened: as §1

K. pneumoniae ATCC 13822 = assay type: cell-based
Procedure: (§2) The inoculum was prepared by making a direct suspension of isolated colonies (selected from an 18-24 hour Mueller-Hinton agar plate) adjusted to the 0.5 McFarland standard. […] The assays were performed in duplicate. […] The MIC values are quoted in μg/mL.

A. baumannii NCTC 13424 = assay type: cell-based
Procedure: as §2

E. coli ATCC 25922 = assay type: cell-based
Procedure: as §2

P. aeruginosa ATCC 27853 = assay type: cell-based
Procedure: as §2

[2] = system: A. baumannii ATCC BAA-747; assay type: cell-based
Procedure: as §2

[3] = cation-adjusted Mueller-Hinton Broth, 18-20 h, 35° C.

Row | Structure (SMILES) | HK-2 rel to PMB (HK-2 cells) | 4 hr kidney level/rel. cytotoxicity [1] | tissue level at time at 4 h [1] [ng/g] | MIC E. coli CA58 (E. coli CA58; CA58) [µg/mL] | MIC K. pneumoniae CA64 (K. pneumoniae CA64; CA64) [µg/mL] | MIC P. aeruginosa CCUG 59347 (P. aeruginosa CCUG 59347; CCUG 59347) [µg/mL] | MIC K. pneumoniae ATCC 13822 (K. pneumoniae ATCC 13822; ATCC 13822) [µg/mL] | MIC A. baumannii NCTC 13424 (A. baumannii NCTC 13424; NCTC 13424) [µg/mL] | MIC E. coli ATCC 25922 (E. coli ATCC 25922; ATCC 25922) [µg/mL] | MIC P. aeruginosa ATCC 27853 (P. aeruginosa ATCC 27853; ATCC 27853) [µg/mL] | MIC A. baumannii ATCC BAA-747 ([2]; ATCC BAA-747) [µg/mL] | MIC E. coli CA58 (E. coli CA58; [3]) [µg/mL] | MIC K. pneumoniae CA64 (K. pneumoniae CA64; [3]) [µg/mL] | MIC P. aeruginosa CCUG 59347 (P. aeruginosa CCUG 59347; [3]) [µg/mL] | MIC K. pneumoniae ATCC 13822 (K. pneumoniae ATCC 13822; [3]) [µg/mL] | MIC A. baumannii NCTC 13424 (A. baumannii NCTC 13424; [3]) [µg/mL] | MIC E. coli ATCC 25922 (E. coli ATCC 25922; [3]) [µg/mL] | MIC P. aeruginosa ATCC 27853 (P. aeruginosa ATCC 27853; [3]) [µg/mL] | MIC A. baumannii ATCC BAA-747 [2, 3] [µg/mL]
1 | CC(C)C[C@@H]1NC(=O)[C@@H](Cc2ccccc2)NC(=O)[C@H](CCN)NC(=O)[C@@H](NC(=O)[C@H](CN)NC(=O)[C@@H](NC(=O)C[C@@H](CN)c2ccc(Cl)cc2)[C@@H](C)O)CCNC(=O)[C@H]([C@@H](C)O)NC(=O)[C@H](CCN)NC(=O)[C@H](CCN)NC1=O [Example 2, (R)-4-amino-3-(4- chlorophenyl)butanoyl- Thr-Dap-Cyclo[Dab- Dab-DPhe-Leu-Dab- Dab-Thr]] (X5-T[Dap][Dab][Dab][dF]L[Dab][Dab]T; lactam 3-C) | 7.2 | 75 | 538000 | 8 (≈ 6.99 µM) | 2 (≈ 1.75 µM) | 0.5 (≈ 0.437 µM) | 0.25 (≈ 0.218 µM) | 0.25 (≈ 0.218 µM) | 0.25 (≈ 0.218 µM) | 0.25 (≈ 0.218 µM) | 0.25 (≈ 0.218 µM) |  |  |  |  |  |  |  | 
2 | CC(C)C[C@@H]1NC(=O)[C@@H](Cc2ccccc2)NC(=O)[C@H](CCN)NC(=O)[C@@H](NC(=O)[C@H](CN)NC(=O)[C@@H](NC(=O)C[C@H](CN)Cc2cccc(Cl)c2)[C@@H](C)O)CCNC(=O)[C@H]([C@@H](C)O)NC(=O)[C@H](CCN)NC(=O)[C@H](CCN)NC1=O [Example 11, (R)-4-amino-3-(3- chlorobenzyl)butanoyl- Thr-Dap-Cyclo[Dab- Dab-DPhe-Leu-Dab- Dab-Thr]. Isomer 1] (X8-T[Dap][Dab][Dab][dF]L[Dab][Dab]T; lactam 3-C) | 5.2 |  | 163000 | 4 (≈ 3.45 µM) | 16 (≈ 13.8 µM) | 0.5 (≈ 0.431 µM) | 0.5 (≈ 0.431 µM) | 0.25 (≈ 0.216 µM) | 0.5 (≈ 0.431 µM) | 0.25 (≈ 0.216 µM) | 0.5 (≈ 0.431 µM) |  |  |  |  |  |  |  | 
3 | CC[C@@H]1NC(=O)[C@@H](CC(C)C)NC(=O)[C@H](CCN)NC(=O)[C@@H](NC(=O)[C@H](CN)NC(=O)[C@@H](NC(=O)C[C@H](CN)c2cccc(CC(C)C)c2)[C@@H](C)O)CCNC(=O)[C@H]([C@@H](C)O)NC(=O)[C@H](CCN)NC(=O)[C@H](CCN)NC1=O [Example 26, (S)-4-amino-3-(3- isobutylphenyl)butanoyl- Thr-Dap- Cyclo[Dab-Dab-DLeu- Abu-Dab-Dab-Thr]] (X6-T[Dap][Dab][Dab][dL][Abu][Dab][Dab]T; lactam 3-C) | >58 |  | 353000 | 8 (≈ 7.24 µM) | 8 (≈ 7.24 µM) | 0.5 (≈ 0.453 µM) | 0.5 (≈ 0.453 µM) | 0.03 (≈ 0.0272 µM) | 0.06 (≈ 0.0543 µM) | 0.25 (≈ 0.226 µM) | 0.06 (≈ 0.0543 µM) |  |  |  |  |  |  |  | 
4 | CC(C)C[C@@H]1NC(=O)[C@@H](CC(C)C)NC(=O)[C@H](CCN)NC(=O)[C@@H](NC(=O)[C@H](CN)NC(=O)[C@@H](NC(=O)C[C@@H](CN)Cc2cccc(Cl)c2)[C@@H](C)O)CCNC(=O)[C@H]([C@@H](C)O)NC(=O)[C@H](CCN)NC(=O)[C@H](CCN)NC1=O [Example 13, (S)-4-amino-3-(3- chlorobenzyl)butanoyl- Thr-Dap-Cyclo[Dab- Dab-DLeu-Leu-Dab- Dab-Thr], Isomer 2] (X16-T[Dap][Dab][Dab][dL]L[Dab][Dab]T; lactam 3-C) |  |  |  | 8 (≈ 7.11 µM) | 16 (≈ 14.2 µM) | 0.5 (≈ 0.445 µM) | 0.5 (≈ 0.445 µM) | 0.5 (≈ 0.445 µM) | 0.5 (≈ 0.445 µM) | 0.25 (≈ 0.222 µM) | 0.5 (≈ 0.445 µM) |  |  |  |  |  |  |  | 
5 | CC(C)C[C@@H]1NC(=O)[C@@H](CC(C)C)NC(=O)[C@H](CCN)NC(=O)[C@@H](NC(=O)[C@H](CN)NC(=O)[C@@H](NC(=O)C[C@H](CN)Cc2cccc(Cl)c2)[C@@H](C)O)CCNC(=O)[C@H]([C@@H](C)O)NC(=O)[C@H](CCN)NC(=O)[C@H](CCN)NC1=O [Example 14, (R)-4-amino-3-(3- chlorobenzy!)butanoyl- Thr-Dap-Cyclo[Dab- Dab-DLeu-Leu-Dab- Dab-Thr] Isomer 1] (X8-T[Dap][Dab][Dab][dL]L[Dab][Dab]T; lactam 3-C) |  |  |  | 8 (≈ 7.11 µM) | 32 (≈ 28.4 µM) | 1 (≈ 0.889 µM) | 0.5 (≈ 0.445 µM) | 0.5 (≈ 0.445 µM) | 1 (≈ 0.889 µM) | 0.5 (≈ 0.445 µM) | 0.5 (≈ 0.445 µM) |  |  |  |  |  |  |  | 
6 | CC(C)C[C@H]1NC(=O)[C@H](CCN)NC(=O)[C@@H](NC(=O)[C@H](CN)NC(=O)[C@@H](NC(=O)C[C@H](CN)c2cccc(C(C)C)c2)[C@@H](C)O)CCNC(=O)[C@H]([C@@H](C)O)NC(=O)[C@H](CCN)NC(=O)[C@H](CCN)NC(=O)[C@H]([C@@H](C)O)NC1=O [Example 19, (S)-4-amino-3-(3- isopropylphenyl) butanoyl-Thr-Dap- Cyclo[Dab-Dab-DLeu- Thr-Dab-Dab-Thr]] (X3-T[Dap][Dab][Dab][dL]T[Dab][Dab]T; lactam 3-C) | 101.4 |  | 386000 | 32 (≈ 28.9 µM) | 64 (≈ 57.8 µM) | 1 (≈ 0.904 µM) | 0.25 (≈ 0.226 µM) | 0.25 (≈ 0.226 µM) | 0.25 (≈ 0.226 µM) | 0.25 (≈ 0.226 µM) | 0.25 (≈ 0.226 µM) |  |  |  |  |  |  |  | 
7 | CC(C)C[C@@H]1NC(=O)[C@@H](Cc2ccccc2)NC(=O)[C@H](CCN)NC(=O)[C@@H](NC(=O)[C@H](CN)NC(=O)[C@@H](NC(=O)C[C@H](CN)c2ccccc2Cl)[C@@H](C)O)CCNC(=O)[C@H]([C@@H](C)O)NC(=O)[C@H](CCN)NC(=O)[C@H](CCN)NC1=O [Example 3, (S)-4-amino-3-(2- chlorophenyl)butanoyl- Thr-Dap-Cyclo[Dab- Dab-DPhe-Leu-Dab- Dab-Thr]] (X15-T[Dap][Dab][Dab][dF]L[Dab][Dab]T; lactam 3-C) |  |  |  |  |  |  |  |  |  |  |  | 32 (≈ 28 µM) | 65 (≈ 56.8 µM) | 0.5 (≈ 0.437 µM) | 0.5 (≈ 0.437 µM) | 1 (≈ 0.874 µM) | 1 (≈ 0.874 µM) | 0.5 (≈ 0.437 µM) | 2 (≈ 1.75 µM)
8 | CC(C)C[C@@H]1NC(=O)[C@@H](Cc2ccccc2)NC(=O)[C@H](CCN)NC(=O)[C@@H](NC(=O)[C@H](CN)NC(=O)[C@@H](NC(=O)C[C@@H](CN)c2ccccc2Cl)[C@@H](C)O)CCNC(=O)[C@H]([C@@H](C)O)NC(=O)[C@H](CCN)NC(=O)[C@H](CCN)NC1=O [Example 4, (R)-4-amino-3-(2- chlorophenyl)butanoyl- Thr-Dap-Cyclo[Dab- Dab-DPhe-Leu-Dab- Dab-Thr]] (X11-T[Dap][Dab][Dab][dF]L[Dab][Dab]T; lactam 3-C) |  |  |  |  |  |  |  |  |  |  |  | 16 (≈ 14 µM) | 16 (≈ 14 µM) | 0.5 (≈ 0.437 µM) | 0.25 (≈ 0.218 µM) | 1 (≈ 0.874 µM) | 0.5 (≈ 0.437 µM) | 0.25 (≈ 0.218 µM) | 1 (≈ 0.874 µM)
